Where “and” joins values, the source holds several entries; their conditions need not be identical. Equal entries are not always repeated.
Assays:
Format in all cases: cell-based
320 non-olfactory GPCRs [1] = target: T1, 320 non-olfactory GPCRs (Homo sapiens, UniProt O00421)
T1 construct: expressed in transfected cells; host or cells: HTLA cells

320 non-olfactory GPCRs [2] = target: T2, 320 non-olfactory GPCRs (Homo sapiens, UniProt Q86VZ1); conditions: receptor P2RY8; replicate values, Fig_4g
T2 construct: expressed in transfected cells; host or cells: HTLA cells

320 non-olfactory GPCRs [3] = target: T3, 320 non-olfactory GPCRs (Homo sapiens, UniProt Q96LB1); conditions: receptor MRGPRX2; replicate values, Fig_4g
T3 construct: expressed in transfected cells; host or cells: HTLA cells

320 non-olfactory GPCRs [4] = target: T4, 320 non-olfactory GPCRs (Homo sapiens, UniProt Q99527)
T4 construct: expressed in transfected cells; host or cells: HTLA cells
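Throughout, for Fold of Basal: compound tested at 1 µM final concentration.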
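Throughout, for GPCRome agonism screen response: fold over basal response of each receptor without drug.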

T2 sequence (Q86VZ1 whole entry): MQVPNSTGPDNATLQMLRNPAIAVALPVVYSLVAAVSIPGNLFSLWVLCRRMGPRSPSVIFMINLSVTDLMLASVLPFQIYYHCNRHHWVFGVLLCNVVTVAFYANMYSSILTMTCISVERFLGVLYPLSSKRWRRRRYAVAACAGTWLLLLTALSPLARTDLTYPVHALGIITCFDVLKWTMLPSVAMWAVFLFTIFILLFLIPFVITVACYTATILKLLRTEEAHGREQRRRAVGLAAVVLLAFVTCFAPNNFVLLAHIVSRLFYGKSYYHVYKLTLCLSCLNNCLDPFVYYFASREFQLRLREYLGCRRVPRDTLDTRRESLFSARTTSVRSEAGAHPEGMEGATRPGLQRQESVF
T3 sequence (Q96LB1 whole entry): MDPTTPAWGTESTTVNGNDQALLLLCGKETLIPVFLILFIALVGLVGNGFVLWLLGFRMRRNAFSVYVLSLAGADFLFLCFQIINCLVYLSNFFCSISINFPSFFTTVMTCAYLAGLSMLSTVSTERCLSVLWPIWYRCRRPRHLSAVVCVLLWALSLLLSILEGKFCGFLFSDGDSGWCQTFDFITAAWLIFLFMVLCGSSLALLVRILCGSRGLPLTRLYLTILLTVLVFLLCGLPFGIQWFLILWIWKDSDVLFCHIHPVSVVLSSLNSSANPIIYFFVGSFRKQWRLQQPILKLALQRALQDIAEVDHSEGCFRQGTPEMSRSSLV
T4 sequence (Q99527 whole entry): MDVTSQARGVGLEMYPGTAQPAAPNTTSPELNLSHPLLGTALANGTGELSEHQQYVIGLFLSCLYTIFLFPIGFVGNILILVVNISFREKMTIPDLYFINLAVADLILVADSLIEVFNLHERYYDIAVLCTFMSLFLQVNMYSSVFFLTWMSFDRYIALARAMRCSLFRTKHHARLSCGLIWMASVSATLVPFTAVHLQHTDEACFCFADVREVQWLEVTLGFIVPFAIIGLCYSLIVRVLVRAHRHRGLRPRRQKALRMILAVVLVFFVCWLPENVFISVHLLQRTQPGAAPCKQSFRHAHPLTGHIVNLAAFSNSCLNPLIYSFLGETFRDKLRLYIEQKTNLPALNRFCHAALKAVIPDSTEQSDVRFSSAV
T1 sequence (O00421 whole entry): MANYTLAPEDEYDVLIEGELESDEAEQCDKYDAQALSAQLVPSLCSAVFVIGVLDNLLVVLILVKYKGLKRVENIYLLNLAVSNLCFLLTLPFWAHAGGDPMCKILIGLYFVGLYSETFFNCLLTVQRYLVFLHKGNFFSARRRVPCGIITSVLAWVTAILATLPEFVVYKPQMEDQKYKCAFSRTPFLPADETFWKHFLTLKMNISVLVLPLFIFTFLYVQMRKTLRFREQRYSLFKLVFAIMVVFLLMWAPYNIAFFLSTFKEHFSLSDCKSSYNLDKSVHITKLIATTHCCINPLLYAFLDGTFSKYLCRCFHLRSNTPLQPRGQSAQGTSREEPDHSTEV

SMILES: CCOc1cccc2cc(C(C)NCC3(O)CCCCC3)oc12 (stereo not shown) [O4LE6]
- Fold of Basal (320 non-olfactory GPCRs [1]): 1.0982 and 0.8519 and 0.828 and 1.211
- GPCRome agonism screen response (320 non-olfactory GPCRs [2]): 0.862 and 0.8339 and 1.83 and 1.383
- GPCRome agonism screen response (320 non-olfactory GPCRs [3]): 1.268 and 1.306 and 1.279 and 0.9356
- Fold of Basal (320 non-olfactory GPCRs [4]): 0.9251 and 0.8387 and 0.6915 and 0.7823
